Measured values published in patent publication US9695155B2, “Herbicidal substituted pyrimidinyloxy benzene compounds” (E. I. DU PONT DE NEMOURS AND COMPANY, priority 2013, dated 2017).

Legend:
[1] = test system: waterhemp_RES2 (ALS & HPPD resistant common waterhemp); experiment: Test E postemergence; assay type: in vivo, Amaranthus rudis
Text: (§1) Seeds of plant species selected from corn (Zea mays), soybean (Glycine max), velvetleaf (Abutilon theophrasti), lambsquarters (Chenopodium album), wild poinsettia (Euphorbia heterophylla), palmer pigweed (Amaranthus palmeri), waterhemp (common waterhemp, Amaranthus rudis), surinam grass (Brachiaria decumbens), large (Lg) crabgrass (Digitaria sanguinalis), Brazilian crabgrass (Digitaria horizontalis), fall panicum (Panicum dichotomiflorum), giant foxtail (Setaria faberii), green foxtail (Setaria viridis), goosegrass (Eleusine indica), johnsongrass (Sorghum halepense), ragweed (common ragweed, Ambrosia elatior), barnyardgrass (Echinochloa crus-galli), sandbur (southern sandbur, Cenchrus echinatus), arrowleaf sida (Sida rhombifolia), Italian ryegrass (Lolium multiflorum), dayflower (Virginia (VA) dayflower, Commelina virginica), field bindweed (Convolvulus arvensis), morningglory (Ipomoea coccinea), nightshade (eastern black nightshade, Solanum ptycanthum), kochia (Kochia scoparia), yellow nutsedge (Cyperus esculentus), cocklebur (common cocklebur, Xanthium strumarium), smartweed (ladysthumb smartweed, and hairy beggarticks (Bidens pilosa), were planted into a silt loam soil and treated preemergence with test chemicals formulated in a non-phytotoxic solvent mixture which included a surfactant.
(§2) At the same time, plants from these crop and weed species and also horseweed (Canada horseweed, Conyza canadensis), waterhemp_RES1, (ALS & Triazine resistant common waterhemp, Amaranthus rudis), and waterhemp_RES2, (ALS & HPPD resistant common waterhemp, Amaranthus rudis) were planted in pots containing Redi-Earth® planting medium (Scotts Company, 14111 Scottslawn Road, Marysville, Ohio 43041) comprising spaghnum peat moss, vermiculite, wetting agent and starter nutrients were treated with postemergence applications of test chemicals formulated in the same manner. Plants ranged in height from 2 to 18 cm for postemergence treatments (1- to 4-leaf stage). Treated plants and controls were maintained in a greenhouse for 14 to 21 days, after which time all species were compared to controls and visually evaluated. Plant response ratings, summarized in Table E, are based on a scale of 0 to 100 where 0 is no effect and 100 is complete control. A dash (-) response means no test result.

waterhemp = experiment: Test E postemergence; assay type: in vivo, Amaranthus rudis
Text: as §1, §2

barnyardgrass = experiment: Test E postemergence; assay type: in vivo, Echinochloa crus-galli
Text: as §1, §2

pigweed = experiment: Test D preemergence; assay type: in vivo, Amaranthus retroflexus; conditions: Amaranthus retroflexus, pre-emergence
In short: (§3)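 Species were sown in silt loam for preemergence treatment, or grown in peat-based medium to the 1–4-leaf stage (2–18 cm) for postemergence sprays. Test chemicals were formulated in a non-phytotoxic solvent mixture with surfactant. After 7–21 days in a controlled environment, plants were rated visually against controls on a 0 (no effect) to 100 (complete control) scale.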

green foxtail = experiment: Test D preemergence; assay type: in vivo, Setaria viridis; conditions: Setaria viridis, pre-emergence
In short: as §3

windgrass = experiment: Test D preemergence; assay type: in vivo, Apera spica-venti; conditions: Apera spica-venti, pre-emergence
In short: as §3

chamomile = experiment: Test D postemergence; assay type: in vivo, Matricaria inodora; conditions: Tripleurospermum inodorum, post-emergence
In short: as §3

canarygrass = experiment: Test D preemergence; assay type: in vivo, Phalaris minor; conditions: Phalaris minor, pre-emergence
In short: as §3

galium = experiment: Test D preemergence; assay type: in vivo, Galium aparine; conditions: Galium, pre-emergence
In short: as §3

chickweed = experiment: Test D postemergence; assay type: in vivo, Stellaria media; conditions: Stellaria media, post-emergence
In short: as §3

winter barley = experiment: Test D postemergence; assay type: in vivo, Hordeum vulgare; conditions: Hordeum vulgare, post-emergence, Postemergence, scale 0 to 100 (0 no effect, 100 complete control), read-out: Plant response rating, Barley, Winter
In short: as §3

spring barley = experiment: Test D postemergence; assay type: in vivo, Hordeum vulgare; conditions: Hordeum vulgare, post-emergence, Postemergence, scale 0 to 100 (0 no effect, 100 complete control), read-out: Plant response rating, Barley, Spring
In short: as §3

speedwell = experiment: Test D postemergence; assay type: in vivo, Veronica persica; conditions: Veronica persica, post-emergence
In short: as §3

[2] = Postemergence, 31 g ai/ha, scale 0 to 100
[3] = Postemergence, 62 g ai/ha, scale 0 to 100
[4] = Postemergence, 125 g ai/ha, scale 0 to 100
[5] = Postemergence, 250 g ai/ha, scale 0 to 100
[6] = postemergence, 16 g ai/ha, scale 0 to 100, 0 no effect, 100 complete control
[7] = postemergence, 8 g ai/ha, scale 0 to 100, 0 no effect, 100 complete control

Structure (SMILES): FC(F)(F)c1cnn(-c2ccccc2Oc2ncc(Cl)cn2)c1 [Compound 16]
- Plant response rating, Waterhemp_RES2 [1, 2]: 50
- Plant response rating, Waterhemp_RES2 [1, 3]: 60
- Plant response rating, Waterhemp_RES2 [1, 4]: 70
- Plant response rating, Waterhemp_RES2 [1, 5]: 85
- Plant response rating, Waterhemp_RES2 [1, 6]: 25
- Plant response rating, Waterhemp (waterhemp; [2]): 60
- Plant response rating, Waterhemp (waterhemp; [3]): 85
- Plant response rating, Waterhemp (waterhemp; [4]): 90
- Plant response rating, Waterhemp (waterhemp; [5]): 90
- Plant response rating, Waterhemp (waterhemp; [6]): 60
- Plant response rating, Barnyardgrass (barnyardgrass; [2]): 0
- Plant response rating, Barnyardgrass (barnyardgrass; [3]): 0
- Plant response rating, Barnyardgrass (barnyardgrass; [4]): 10
- Plant response rating, Barnyardgrass (barnyardgrass; [5]): 15
- Plant response rating, Barnyardgrass (barnyardgrass; [6]): 0

Structure (SMILES): Clc1cnc(Oc2cccc(Br)c2-n2cc(Br)cn2)nc1 [Compound 65]
- Plant response rating, Waterhemp_RES2 [1, 2]: 90
- Plant response rating, Waterhemp_RES2 [1, 3]: 95
- Plant response rating, Waterhemp_RES2 [1, 4]: 98
- Plant response rating, Waterhemp_RES2 [1, 6]: 80
- Plant response rating, Waterhemp (waterhemp; [2]): 70
- Plant response rating, Waterhemp (waterhemp; [3]): 75
- Plant response rating, Waterhemp (waterhemp; [4]): 95
- Plant response rating, Waterhemp (waterhemp; [7]): 60
- Plant response rating, Waterhemp (waterhemp; [6]): 50
- Plant response rating, Barnyardgrass (barnyardgrass; [2]): 0
- Plant response rating, Barnyardgrass (barnyardgrass; [3]): 0
- Plant response rating, Barnyardgrass (barnyardgrass; [4]): 0
- Plant response rating, Barnyardgrass (barnyardgrass; [7]): 0
- Plant response rating, Barnyardgrass (barnyardgrass; [6]): 0

Structure (SMILES): FC(F)(F)COc1cnn(-c2ccccc2Oc2ncc(Cl)cn2)c1 [Compound 138, 5-chloro-2-[2-[4-(2,2,2-trifluoroethoxy)-1H-pyrazol-1-yl]phenoxy]pyrimidine]
- pest or weed control at 16 g/ha (pigweed; 16 g ai/ha, scale 0 (no effect) to 100 (complete control), read-out: Plant response rating, Pigweed): 0%
- pest or weed control at 31 g/ha (pigweed; 31 g ai/ha, scale 0 (no effect) to 100 (complete control), read-out: Plant response rating, Pigweed): 25%
- pest or weed control at 62 g/ha (pigweed; 62 g ai/ha, scale 0-100, read-out: Plant response rating, Pigweed): 100%
- pest or weed control at 125 g/ha (pigweed; 125 g ai/ha, scale 0-100, read-out: Plant response rating, Pigweed): 100%
- pest or weed control at 16 g/ha (green foxtail; 16 g ai/ha, scale 0 (no effect) to 100 (complete control), read-out: Plant response rating, Foxtail, Green): 0%
- pest or weed control at 31 g/ha (green foxtail; 31 g ai/ha, scale 0-100, read-out: Plant response rating, Foxtail, Green): 0%
- pest or weed control at 62 g/ha (green foxtail; 62 g ai/ha, scale 0-100, read-out: Plant response rating, Foxtail, Green): 20%
- pest or weed control at 125 g/ha (green foxtail; 125 g ai/ha, scale 0-100, read-out: Plant response rating, Foxtail, Green): 100%
- pest or weed control at 16 g/ha (windgrass; 16 g ai/ha, scale 0 (no effect) to 100 (complete control), read-out: Plant response rating, Windgrass): 0%
- pest or weed control at 31 g/ha (windgrass; 31 g ai/ha, scale 0 (no effect) to 100 (complete control), read-out: Plant response rating, Windgrass): 0%
- pest or weed control at 62 g/ha (windgrass; 62 g ai/ha, scale 0-100, read-out: Plant response rating, Windgrass): 0%
- pest or weed control at 125 g/ha (windgrass; 125 g ai/ha, scale 0-100, read-out: Plant response rating, Windgrass): 15%
- pest or weed control at 16 g/ha (chamomile; 16 g ai/ha, scale 0-100, read-out: Plant response rating, Chamomile): 0%
- pest or weed control at 31 g/ha (chamomile; 31 g ai/ha, scale 0 to 100 (0 no effect, 100 complete control), read-out: Plant response rating, Chamomile): 0%
- pest or weed control at 62 g/ha (chamomile; 62 g ai/ha, scale 0 to 100 (0 no effect, 100 complete control), read-out: Plant response rating, Chamomile): 0%
- pest or weed control at 125 g/ha (chamomile; 125 g ai/ha, scale 0 to 100 (0 no effect, 100 complete control), read-out: Plant response rating, Chamomile): 0%
- pest or weed control at 16 g/ha (canarygrass; 16 g ai/ha, scale 0 (no effect) to 100 (complete control), read-out: Plant response rating, Canarygrass): 10%
- pest or weed control at 31 g/ha (canarygrass; 31 g ai/ha, scale 0-100, read-out: Plant response rating, Canarygrass): 10%
- pest or weed control at 62 g/ha (canarygrass; 62 g ai/ha, scale 0-100, read-out: Plant response rating, Canarygrass): 20%
- pest or weed control at 125 g/ha (canarygrass; 125 g ai/ha, scale 0-100, read-out: Plant response rating, Canarygrass): 40%
- pest or weed control at 16 g/ha (galium; 16 g ai/ha, scale 0 (no effect) to 100 (complete control), read-out: Plant response rating, Galium): 25%
- pest or weed control at 31 g/ha (galium; 31 g ai/ha, scale 0-100, read-out: Plant response rating, Galium): 40%
- pest or weed control at 62 g/ha (galium; 62 g ai/ha, scale 0-100, read-out: Plant response rating, Galium): 90%
- pest or weed control at 125 g/ha (galium; 125 g ai/ha, scale 0-100, read-out: Plant response rating, Galium): 100%
- pest or weed control at 16 g/ha (chickweed; 16 g ai/ha, scale 0-100, read-out: Plant response rating, Chickweed): 20%
- pest or weed control at 31 g/ha (chickweed; 31 g ai/ha, scale 0 to 100 (0 no effect, 100 complete control), read-out: Plant response rating, Chickweed): 20%
- pest or weed control at 62 g/ha (chickweed; 62 g ai/ha, scale 0 to 100 (0 no effect, 100 complete control), read-out: Plant response rating, Chickweed): 40%
- pest or weed control at 125 g/ha (chickweed; 125 g ai/ha, scale 0 to 100 (0 no effect, 100 complete control), read-out: Plant response rating, Chickweed): 55%
- plant injury at 16 g/ha (winter barley; 16 g ai/ha): 5%
- plant injury at 31 g/ha (winter barley; 31 g ai/ha): 5%
- plant injury at 62 g/ha (winter barley; 62 g ai/ha): 5%
- plant injury at 125 g/ha (winter barley; 125 g ai/ha): 10%
- plant injury at 16 g/ha (spring barley; 16 g ai/ha): 10%
- plant injury at 31 g/ha (spring barley; 31 g ai/ha): 10%
- plant injury at 62 g/ha (spring barley; 62 g ai/ha): 10%
- plant injury at 125 g/ha (spring barley; 125 g ai/ha): 15%
- pest or weed control at 16 g/ha (speedwell; 16 g ai/ha, scale 0-100, read-out: Plant response rating, Speedwell): 70%
- pest or weed control at 31 g/ha (speedwell; 31 g ai/ha, scale 0 to 100 (0 no effect, 100 complete control), read-out: Plant response rating, Speedwell): 70%
- pest or weed control at 62 g/ha (speedwell; 62 g ai/ha, scale 0 to 100 (0 no effect, 100 complete control), read-out: Plant response rating, Speedwell): 75%
- pest or weed control at 125 g/ha (speedwell; 125 g ai/ha, scale 0 to 100 (0 no effect, 100 complete control), read-out: Plant response rating, Speedwell): 75%
